Values of other authors in patent US20230226121A1, “Honey Foam” (priority 2022, published 2023).

Columns and labels:
[1] = test system: Staphylococcus aureus ATCC 29213
[2] = test system: Escherichia Coli ATCC 25922

For `CCN(CC)CC(=O)Nc1c(C)cccc1C` [lidocaine], the MIC [1] is given as 20 Mg/ml and the MIC [2] is given as 5 Mg/ml.
